Test results: patent US8911751B2, “Compositions for nasal delivery” (Yissum Research Development Company of the Hebrew …, priority 2005, dated 2014)

System: Female C57Bl/6 mice
Test: Pentobarbitone-induced sleeping in mice (Example 34)
Assay type: in vivo
Conditions: oral Brotizolam 0.25 mg/kg, 5 minutes before sleep induction; compared to control

## Cc1nnc2n1-c1sc(Br)cc1C(c1ccccc1Cl)=NC2 [Oral Brotizolam, 8-bromo-6-(o-chlorophenyl)-1-methyl-4H-s-triazolo[3,4c]thieno[2,3e]1,4-diazepine]
  latency (onset of the loss of righting reflex): no significant effect
  total sleeping time (TST): no significant effect
